This is an account of results in US20230049576A1, “GLUTATHIONE-CONTAINING COMPOSITION” (priority 2019, published 2023).

In experiment [1] the test system is cultured keratinocytes. The note with it: Cryj1 100 ng/ml with glutathione 5 μg/ml. How it is done: Culture keratinocytes (Distributor: Kurabo) were cultured in the EPILIFE-KG2 medium (Distributor: Kurabo) for two days in a humidified atmosphere at 37° C. For the confluent culture, the medium was replaced with EPILIFE-KG2+Ca1.8 mM (Distributor: Kurabo), and then after 28 to 48 hours of incubation, with EPILIFE-KG2 +Cal containing 5 μM of Fura2 AM (Distributor: life technology), following by one hour of culturing. Then, it was replaced with a buffer (pH 7.4) containing NaCl 150 mM, KCI 5 mM, CaCl2 1.8 mM, MgCl2 1.2 mM, HEPES 25 mM, and D-glucose 10 mM, and Cryj1 (Distributor: HAYASHIBARA) was added to the buffer at the concentration of 100 ng/ml alone, or with glutathione (Distributor: Nacalai Tesque, Inc.) (5 μg/ml). Fluorescence was measured with a fluorescence microscope to measure changes in the intracellular calcium concentration.
The value of intracellular calcium concentration about 2 minutes after the addition of Cryj1 was calculated and quantified using the Aqua Cosmos software.

The target in experiment [2] is thrombin (Homo sapiens, UniProt P00734). The experiment can be described thus: Measurement of thrombin activity (Rox prothrombin kit, chromogenic substrate, absorbance 405 nm). Type of experiment: biochemical. The settings on record: glutathione 500 μg/ml to 2.5 mg/ml added to 40 ng/ml prothrombin; thrombin activator and substrate added; absorbance 405 nm every 40 seconds; FIG. 1. How it is done: A Rox prothrombin kit (Distributor: Rossix) was used for the measurement of thrombin activity. After glutathione (Distributor: Nacalai Tesque, Inc.) was added to a 40 ng/ml solution of prothrombin (Distributor: Invitrogen) at a concentration of 500 μg/ml to 2.5 mg/ml, the thrombin activator and thrombin substrate included in the kit were added and thrombin activity was measured.

In experiment [3] the test system is epidermal permeation barrier. The settings on record: previous study, Non-patent Document 2, Patent Document 1; cited from earlier work.

In the case of `N[C@@H](CCC(=O)N[C@@H](CS)C(=O)NCC(=O)O)C(=O)O` [Glutathione, glutathione], the “calcium imaging over time (excitation of fluorescence)” value in experiment [1] (FIG. 2) was “suppresses the excitation”. The “intracellular calcium concentration about 2 minutes after the addition of Cryj1” value in experiment [1] (FIG. 3) was “significantly suppresses the calcium response elicited by Cryj1”. In experiment [2], the “thrombin activity (substrate decomposition rate)” value was “inhibit thrombin activity in a dose-dependent manner”.

For `NC[C@H]1CC[C@H](C(=O)O)CC1` [tranexamic acid], the “delay in thrombin-mediated recovery of the epidermal permeation barrier induced by Cryj1” value in experiment [3] is “blocks the delay in thrombin-mediated recovery of the epidermal permeation barrier”.
